Consider 10 compounds from ChEMBL document CHEMBL1146819, “Synthesis and SAR of 2-arylbenzoxazoles, benzothiazoles and benzimidazoles as inhibitors of lysophosphatidic acid acyltransferase-beta” (Bioorg Med Chem Lett, 2004).

Structures are written as SMILES. Active and inactive are the calls of the source.

For experiment [1], the system named is DU-145. Kind of experiment: In vitro inhibitory concentration of compound against proliferation of DU145 prostate carcinoma cells. Format: functional, cell-based. The conditions noted are these: Homo sapiens.
Experiment [2] deals with T1, 1-acyl-sn-glycerol-3-phosphate acyltransferase alpha (Homo sapiens) (UniProt Q99943).
T1 sequence (whole entry): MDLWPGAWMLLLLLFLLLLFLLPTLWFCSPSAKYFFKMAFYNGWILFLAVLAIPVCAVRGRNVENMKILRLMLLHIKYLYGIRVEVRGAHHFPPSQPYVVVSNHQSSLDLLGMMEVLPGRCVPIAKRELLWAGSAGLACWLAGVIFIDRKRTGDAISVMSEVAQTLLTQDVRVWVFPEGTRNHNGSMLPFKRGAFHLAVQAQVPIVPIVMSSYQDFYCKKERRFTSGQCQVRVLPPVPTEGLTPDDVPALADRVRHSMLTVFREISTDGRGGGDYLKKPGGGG
Kind of experiment: Inhibitory activity against human lysophosphatidic acid acyltransferase-alpha (LPAAT-alpha) expressed in Sf9 insect cell membranes at <20 uM; Not active.

Experiment [3] has as its system MCF7. In words: In vitro inhibitory concentration of compound against proliferation of MCF-7 breast carcinoma cells. Format: functional, cell-based. The conditions noted are these: Homo sapiens.
The target of experiment [4] is T2, 1-acyl-sn-glycerol-3-phosphate acyltransferase beta (Homo sapiens, UniProt O15120).
T2 sequence (O15120 whole entry): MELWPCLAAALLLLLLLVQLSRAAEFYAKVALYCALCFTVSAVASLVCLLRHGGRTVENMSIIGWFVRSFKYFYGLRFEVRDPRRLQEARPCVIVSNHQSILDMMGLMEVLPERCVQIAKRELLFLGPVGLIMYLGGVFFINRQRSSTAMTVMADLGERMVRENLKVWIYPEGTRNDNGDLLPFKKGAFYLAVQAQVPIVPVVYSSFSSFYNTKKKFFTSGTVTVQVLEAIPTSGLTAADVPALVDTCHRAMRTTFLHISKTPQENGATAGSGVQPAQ
In words: Inhibitory concentration against human lysophosphatidic acid acyltransferase-beta (LPAAT-beta) expressed in Sf9 insect cell membranes.

The subject of experiment [5] is MCF7. Kind of experiment: In vitro inhibitory concentration of compound against proliferation of MCF-7 breast carcinoma cells; Range is 30-40 uM. Format: functional, cell-based. Conditions: Homo sapiens.

With `C#CCOC(=O)Nc1ccc(Cl)c(-c2nc3cc(Cl)ccc3s2)c1`, the IC50 in experiment [1] and in experiment [3] was greater than 50 µM throughout. The result in experiment [2] was inactive.
For the compound `C#CCOC(=O)Nc1ccc(Cl)c(-c2nc3cc(Cl)ccc3o2)c1`, the IC50 in experiment [1] was 50 µM; in experiment [3], 15 µM. Besides, in experiment [2], the outcome was inactive.
As for `CCC(=O)Nc1ccc(Cl)c(-c2nc3cc(C)ccc3o2)c1`, the IC50 in experiment [1] was found to be 40 µM; in experiment [4], 1.5 µM; in experiment [3] it was 40 µM. The result in experiment [2] was inactive.
For `C#CCOC(=O)Nc1ccc(Cl)c(-c2nc3cc(C(F)(F)F)ccc3s2)c1`, the results for the concentration for half-maximal inhibition (IC50) in experiment [1] and in experiment [5] were 20 µM and 40 µM, respectively. The outcome in experiment [2] was inactive.
Consider `CNC(=O)Nc1ccc(Cl)c(-c2nc3cc(Cl)ccc3o2)c1`, for which the result in experiment [2] was inactive. This compound also yielded an IC50 in experiment [4] of 0.95 µM.
For `[N-]=[N+]=NCC(=O)Nc1ccc(Cl)c(-c2nc3cc(Cl)ccc3o2)c1` the same measures were “inactive” and 0.17 µM.
The matching figures for `C#CCOC(=O)Nc1ccc(Cl)c(-c2nc3cc(O)ccc3o2)c1`: “inactive” and 2 µM.
As to `C#CCOC(=O)Nc1ccc(Cl)c(-c2nc3ccccc3o2)c1`, the values for the IC50 in experiment [1] and in experiment [3] were 50 µM and 20 µM, respectively. In experiment [2], the result was inactive.
Take `C#CCNC(=O)Nc1ccc(Cl)c(-c2nc3cc(Cl)ccc3o2)c1`: the outcome in experiment [2] was inactive. Further, the half-inhibitory concentration (IC50) in experiment [4] came to 0.1 µM.
The matching figures for `COC(=O)Nc1ccc(Cl)c(-c2nc3cc(-c4ccccc4)ccc3o2)c1`: “inactive” and 64 µM.

As usually defined, the IC50 is the point on the concentration scale where inhibition reaches its midpoint.
